The values below come from patent publication US20110070258A1, “METHOD OF SLOWING THE AGING PROCESS BY ACTIVATING SIRTUIN ENZYMES” (Polifenoles Naturales, S.L., priority 2009, published 2011).

The structures appear in SMILES notation.

Assay [1] deals with Sirt1. The assay is described as follows: Sirt1 expression by Western Blot in differentiated 3T3-L1 adipocytes. Type of assay: cell-based, mouse. The protocol:
The effect of fucoxanthin/punicic acid mixtures on Sirt1 expression in murine cells was studied. Mouse 3T3-L1 pre-adipocytes purchased from the American Type Culture Collection (Rockville, Md.) were grown in Dubecco's modified Eagle's medium (DMEM) (Gibco BRL, Grand Island, N.Y.) supplemented with 2 mM glutamine (GIBCO BRL), 1% penicillin/streptomycin (10000 units of penicillin/mL and 10 mg streptomycin/mL) and 10% fetal bovine serum at 37° C. under a humidified 5% CO2 atmosphere. For differentiation of 3T3-L1 pre-adipocytes, cells were seeded into 6-well culture plates (2×10^4/mL) and cultured as described above. […] The fucoxanthin extract used in this study of Sirt1 expression in murine cells was an extract of the complete plant of Undaria […]. The extract contains 0.8% by weight fucoxanthin and 30% by weight marine vegetable oil. The fucoxanthin extract used may further contain ≦10.0 wt. % palm oil. The pomegranate seed oil used in this study contains 70 wt. % punicic acid, and is an extract of the seeds of the Punica granatum plant. […], the fucoxanthin/punicic acid mixture used in this study, contains 50 wt. % of the fucoxanthin extract, and 50 wt. % of the pomegranate seed oil. […] The total proteins are measured by Bio-Rad Protein Assay (Bio-Rad Laboratories, Munich, Germany). […]
(In western blotting, separated proteins are transferred to a membrane and probed.)

Assay [2] in a line: Energy expenditure by indirect calorimetry in obese subjects (dose-response clinical trial). Format: in vivo, human. The following applies: for Energy Expenditure, Baseline: n = 4; for Energy Expenditure, Baseline / Energy Expenditure, 2 weeks / Energy Expenditure, 5 weeks / Energy Expenditure, 10 weeks / Energy Expenditure, 16 weeks / Total Energy Expenditure, to (16 weeks) / Total Energy Expenditure, From (baseline) / Change in Total Energy Expenditure, Net: NAFLD; for Change in Total Energy Expenditure, Net: baseline to 16 weeks. The protocol: Energy expenditure rate (EER) was measured in patients by indirect calorimetry. Oxygen was measured with an electrochemical oxygen sensor, and carbon dioxide was measured with an infrared carbon dioxide sensor (Ametec Carbon Dioxide Analyzer). Before each measurement, the instrument was calibrated with a mixture of O2 and CO2 gases. Rates of oxygen consumption (O2) and carbon dioxide production (CO2) were calculated and printed out at 1-min intervals. Energy expenditure was derived from O2 and CO2 values.
Obese subjects diagnosed with NAFLD and with apparently healthy liver (HL) were matched in pairs based on age, body weight and body fat mass and were randomly divided into Experimental NAFLD group (n=36), Placebo NAFLD (n=36), Experimental HL (n=19) and Placebo-HL group (n=19). Subjects were randomly assigned, in equal numbers, to the phytomedicine experimental groups and the Placebo control group, using the Simple Randomization Procedure. Their daily dietary intake was restricted to 1800±100 kcals, of which 50±5% was in the form of carbohydrates, 30±5% from protein, and 20±5% from fat. Subjects were also instructed to consume all the foods and beverages designated by dieticians and provided by the Institute, and to eat no other food or high calories beverages. […] During the clinical phase, subjects were required to visit a designated hospital three times a week for physiological and biochemical analysis. Institute provided all foods and beverages by designated dieticians and labeled as B, L, and D for breakfast, lunch and dinner, respectively.
The brown marine vegetable extract was suspended in 100 mg cold-pressed pomegranate seed oil. The pomegranate seed oil was standardized to contain a minimum of 70% punicic acid, for a total weight of 200 mg/capsule. The content of fucoxanthin in Experimental Sample (Xanthigen) was analyzed using high performance liquid chromatography method, and the fatty acids were analyzed by Gas Chromatography method. The HPLC profile of the brown marine vegetable extract is shown in FIG. 2A, along with an HPLC chromatogram of pure fucoxanthin for comparison in FIG. 2B.
Energy expenditure (EE) and substrate oxidations were measured by indirect calorimetry as described previously (Ranneries et al., 1998). Oxygen was measured with an electrochemical oxygen sensor, and carbon dioxide was measured by an infrared carbon dioxide sensor (Ametec Carbon Dioxide Analyzer). Calculations of EE and substrate oxidation rates were performed as previously described (Astrup et al., 1991). Protein oxidation was assumed to be constant and amounting to 15% of EE. […] The reliability was assessed by the coefficient of variation on resting energy expenditure repeated every week.

On to `CCCC\C=C/C=C/C=C\CCCCCCCC(=O)O` [punicic acid, 9-cis, 11-trans conjugated linolenic acid (9c,11t,13c-CLNA)], for which the “Effect on Sirt1 protein levels / expression” value in assay [1] was “suppresses Sirt1 expression”.

With `CC(=O)O[C@H]1CC(C)(C)C(=C=C/C(C)=C/C=C/C(C)=C/C=C/C=C(C)/C=C/C=C(\C)C(=O)C[C@@]23O[C@]2(C)C[C@@H](O)CC3(C)C)[C@](C)(O)C1` [Fucoxanthin, fucoxanthin], the “increase in daily energy expenditure rate” value in assay [2] (25 mg fucoxanthin alone) was 1152 ± 290 kJ/day. Also, the “Energy Expenditure, Baseline” value in assay [2] (Fucoxanthin 10 mg per day) is 5.82 ± 0.18 kJ/min; in assay [2] (Fucoxanthin 15 mg per day), 5.85 ± 0.27 kJ/min; in assay [2] (Fucoxanthin 25 mg per day) it was 5.92 ± 0.16 kJ/min; in assay [2] (Fucoxanthin 50 mg per day) it was 6.04 ± 0.24 kJ/min. The “Energy Expenditure, 2 weeks” value is given as 5.69 ± 0.21 kJ/min in assay [2] (Fucoxanthin 10 mg per day), 5.89 ± 0.14 kJ/min in assay [2] (Fucoxanthin 15 mg per day), 6.02 ± 0.23 kJ/min in assay [2] (Fucoxanthin 25 mg per day) and 5.91 ± 0.31 kJ/min in assay [2] (Fucoxanthin 50 mg per day). The “Energy Expenditure, 5 weeks” value is 5.93 ± 0.15 kJ/min in assay [2] (Fucoxanthin 10 mg per day), 5.98 ± 0.17 kJ/min in assay [2] (Fucoxanthin 15 mg per day), 5.92 ± 0.27 kJ/min in assay [2] (Fucoxanthin 25 mg per day) and 6.32 ± 0.22 kJ/min in assay [2] (Fucoxanthin 50 mg per day). Moreover, the “Energy Expenditure, 10 weeks” value in assay [2] (Fucoxanthin 10 mg per day) is given as 5.69 ± 0.21 kJ/min; in assay [2] (Fucoxanthin 15 mg per day), 6.11 ± 0.21 kJ/min; in assay [2] (Fucoxanthin 25 mg per day) it was 6.29 ± 0.31 kJ/min; in assay [2] (Fucoxanthin 50 mg per day), 6.92 ± 0.31 kJ/min. The “Energy Expenditure, 16 weeks” value in assay [2] (Fucoxanthin 10 mg per day) turned out to be 5.98 ± 0.18 kJ/min; in assay [2] (Fucoxanthin 15 mg per day), 6.39 ± 0.17 kJ/min; in assay [2] (Fucoxanthin 25 mg per day), 6.72 ± 0.22 kJ/min; in assay [2] (Fucoxanthin 50 mg per day) it was 7.37 ± 0.35 kJ/min. Besides, the “Total Energy Expenditure, to (16 weeks)” value stood at 8611 kJ/24 h in assay [2] (Fucoxanthin 10 mg per day), 9202 kJ/24 h in assay [2] (Fucoxanthin 15 mg per day), 9677 kJ/24 h in assay [2] (Fucoxanthin 25 mg per day) and 10613 kJ/24 h in assay [2] (Fucoxanthin 50 mg per day). The “Total Energy Expenditure, From (baseline)” value turned out to be 8381 kJ/24 h in assay [2] (Fucoxanthin 10 mg per day), 8424 kJ/24 h in assay [2] (Fucoxanthin 15 mg per day), 8525 kJ/24 h in assay [2] (Fucoxanthin 25 mg per day) and 8698 kJ/24 h in assay [2] (Fucoxanthin 50 mg per day). Moreover, the “Change in Total Energy Expenditure, Net” value in assay [2] (Fucoxanthin 10 mg per day, NS vs placebo) is listed as “Net 230 ± 147 kJ/24 h”; in assay [2] (Fucoxanthin 15 mg per day, p < 0.05 vs placebo), “Net 778 ± 260 kJ/24 h”; in assay [2] (Fucoxanthin 25 mg per day, p < 0.05 vs placebo), “Net 1152 ± 290 kJ/24 h”; in assay [2] (Fucoxanthin 50 mg per day, p < 0.001 vs placebo), “Net 1915 ± 246 kJ/24 h”. Further, the “EER” value in assay [2] (fucoxanthin dose of 1.6 mg per se) is “not effective per se”. Moreover, the “minimum effective dose (increase of EER), stand alone” value in assay [2] (obese subjects, stand alone) is given as 2.4 mg.
